# Reference: patent US20260130925A1, “METHODS FOR TREATING CANCER” (Genesis Molecular AI, Inc., priority 2022, published 2026)
# Molecular target: T1, PI3Kα H1047R in T47D cells (Homo sapiens, UniProt P42336, H1047R)
# T1 construct: endogenous in cells; host or cells: T47D
# Experiment: PI3Kα cellular assay: T47D pAKT S473 HTRF
# Format: cell-based
# Details: for T47D pAKT S473 HTRF IC50 (H1047R): T47D (H1047R) selectivity over SKBR3 (WT): T47D (H1047R) versus SKBR3 (WT) cells; for IC50: T47D cells (H1047R), serum starved, 1 hr compound, 20 ng/ml EGF 10 min
# Method: PI3Kα cellular assay experimental procedure: SKBR3 or T47D cells are seeded in DMEM containing 10% FBS at 25 k cells/well into 96-well cell culture format. Cells are incubated overnight at 37° C. in a 5% CO2 incubator and the following day cell media is aspirated, adherent cells are washed 1× with room temperature PBS prior to serum-free media application. Cells are returned to 37° C. 5% CO2 incubator and incubated a further 16 hrs. Compounds are added to serum starved adherent cells with a top dose of 10,000 nM and 3× multiple dose reductions for a minimum dose of 0.5 nM diluted in DMSO. Cell/compound incubation continues for 1 hr in a 37° C., 5% CO2 incubator prior to 10 minute PIK3CA stimulation with 20 ng/ml EGF. Cells treated with 0.1% DMSO and 20 ng/mL EGF are employed as negative control, cells treated with 10 uM Alpelisib and 20 ng/mL EGF are employed as a positive control. After 10 mins, plates are removed from incubator and cells are lysed with buffer and shaking 45 minutes. 20 μL of lysate is transferred to an opti-384 plate and 2.5 μl of Phospho-AKT d2 antibody with 2.5 μl of Phospho-AKT Eu Cryptate solution in the detection buffer are added to each well. 384 well plate is left overnight at room temperature before reading HTRF on an Envision plate reader.
# T1 sequence (P42336 whole entry H1047R): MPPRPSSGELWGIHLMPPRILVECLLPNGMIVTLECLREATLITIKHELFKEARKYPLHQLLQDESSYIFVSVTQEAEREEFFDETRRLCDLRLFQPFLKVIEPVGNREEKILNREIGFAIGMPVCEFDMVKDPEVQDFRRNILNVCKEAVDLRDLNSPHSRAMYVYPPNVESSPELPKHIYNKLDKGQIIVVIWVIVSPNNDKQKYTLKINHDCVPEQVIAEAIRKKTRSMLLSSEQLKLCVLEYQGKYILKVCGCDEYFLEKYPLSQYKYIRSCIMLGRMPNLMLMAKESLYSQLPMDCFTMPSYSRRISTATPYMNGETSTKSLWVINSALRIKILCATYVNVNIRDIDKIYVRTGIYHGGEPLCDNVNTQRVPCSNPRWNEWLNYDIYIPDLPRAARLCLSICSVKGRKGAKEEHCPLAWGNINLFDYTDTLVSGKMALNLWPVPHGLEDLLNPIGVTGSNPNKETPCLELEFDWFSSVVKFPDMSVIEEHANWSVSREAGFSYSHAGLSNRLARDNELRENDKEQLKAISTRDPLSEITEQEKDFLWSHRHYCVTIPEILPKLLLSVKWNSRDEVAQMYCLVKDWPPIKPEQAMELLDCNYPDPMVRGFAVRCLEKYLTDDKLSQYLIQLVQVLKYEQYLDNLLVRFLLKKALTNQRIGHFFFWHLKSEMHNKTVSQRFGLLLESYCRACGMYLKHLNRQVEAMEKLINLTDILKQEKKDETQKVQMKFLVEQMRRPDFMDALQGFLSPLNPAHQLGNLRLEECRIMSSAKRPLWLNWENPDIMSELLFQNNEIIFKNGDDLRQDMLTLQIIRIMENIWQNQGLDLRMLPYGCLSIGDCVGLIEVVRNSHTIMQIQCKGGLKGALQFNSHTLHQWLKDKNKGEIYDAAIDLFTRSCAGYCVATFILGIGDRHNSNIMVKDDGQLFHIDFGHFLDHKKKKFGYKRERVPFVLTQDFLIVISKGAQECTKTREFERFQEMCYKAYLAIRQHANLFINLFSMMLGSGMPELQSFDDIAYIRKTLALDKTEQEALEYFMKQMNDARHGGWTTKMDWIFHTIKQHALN
# T1 sequence (P27986 whole entry partner): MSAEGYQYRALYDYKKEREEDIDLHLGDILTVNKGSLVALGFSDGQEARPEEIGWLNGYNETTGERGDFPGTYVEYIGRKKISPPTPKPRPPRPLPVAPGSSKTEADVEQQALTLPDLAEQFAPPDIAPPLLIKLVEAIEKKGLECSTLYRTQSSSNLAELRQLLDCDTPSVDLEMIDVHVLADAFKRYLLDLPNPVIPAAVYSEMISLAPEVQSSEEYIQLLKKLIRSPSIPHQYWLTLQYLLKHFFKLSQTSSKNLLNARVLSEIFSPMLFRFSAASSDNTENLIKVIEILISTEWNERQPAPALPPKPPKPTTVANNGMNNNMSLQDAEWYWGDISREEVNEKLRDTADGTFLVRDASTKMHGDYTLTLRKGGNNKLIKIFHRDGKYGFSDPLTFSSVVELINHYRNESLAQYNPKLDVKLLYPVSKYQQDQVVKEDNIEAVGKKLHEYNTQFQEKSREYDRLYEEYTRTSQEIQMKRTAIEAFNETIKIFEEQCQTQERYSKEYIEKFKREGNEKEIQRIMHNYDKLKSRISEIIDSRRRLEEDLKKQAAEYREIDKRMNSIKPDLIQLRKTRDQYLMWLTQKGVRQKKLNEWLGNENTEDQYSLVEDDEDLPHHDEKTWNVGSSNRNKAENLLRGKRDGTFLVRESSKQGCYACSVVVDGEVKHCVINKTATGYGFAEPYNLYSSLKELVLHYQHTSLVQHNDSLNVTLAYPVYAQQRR
T47D pAKT S473 HTRF IC50 (H1047R): T47D (H1047R) selectivity over SKBR3 (WT),IC50 [nM],SMILES
B (B denotes 20-fold≥value>5-fold),< 750,Cc1cc([C@H](C)Nc2ccccc2C(=O)O)c2[nH]c(N3CCOCC3)nc(=O)c2c1 [Compound 17]
B (B denotes 20-fold≥value>5-fold),< 750,"Cc1cc(C(C)Nc2ccccc2C(=O)O)c2nc(-c3ccncc3)nc(O)c2c1 (centres unmarked) [Compound 9, 2-((1-(4-hydroxy-6-methyl-2-(pyridin-4-yl)quinazolin-8-yl)ethyl)amino)benzoic acid]"
A (A denotes >20-fold),< 750,Cc1cc(C(C)Nc2ccccc2C(=O)O)c2cc(OCc3ccccc3)nc(C(N)=O)c2c1 (centres unmarked) [Compound 128]
A (A denotes >20-fold),< 750,Cc1cc([C@@H](C)Nc2ccccc2C(=O)O)c2nc(N3Cc4ccccc4C3)nc(OC3COC3)c2c1 [Compound 146]
C (C denotes ≤5-fold),≥ 2000,Cc1cc([C@@H](C)Nc2ccccc2C(=O)O)c2nc(N3CCC(C)(C)CC3)nc(N)c2c1 [Compound 2]
B (B denotes 20-fold≥value>5-fold),750 to 2000,Cc1cc(C(C)Nc2ccccc2C(=O)O)c2nc(N3Cc4ccccc4C3)nc(C3CC3O)c2c1 (centres unmarked) [Compound 69]
C (C denotes ≤5-fold),≥ 2000,CCOc1nc(N2Cc3ccccc3C2)nc2c([C@@H](C)Nc3ccccc3C(=O)O)cc(C)cc12 [Compound 147]
A (A denotes >20-fold),< 750,Cc1cc([C@@H](C)Nc2ccccc2C(=O)O)c2nc(-c3ccc(C#N)nc3)n(C)c(=O)c2c1 [Compound 138]
C (C denotes ≤5-fold),≥ 2000,Cc1cc([C@H](C)Nc2ccccc2C(=O)O)c2nc(N3CCC(C)(C)CC3)nc(N)c2c1 [Compound 1]
C (C denotes ≤5-fold),≥ 2000,Cc1cc(C(C)Nc2ccccc2C(=O)O)c2cc(N3Cc4ccccc4C3)nc(C#N)c2c1 (centres unmarked) [Compound 46]
A (A denotes >20-fold),< 750,Cc1cc([C@@H](C)Nc2ccccc2C(=O)O)c2nc(-c3ccnc(C#N)c3)n(C)c(=O)c2c1 [Compound 143]
C (C denotes ≤5-fold),≥ 2000,Cc1cc(C(C)Nc2ccccc2C(=O)O)c2nc(N3CCC(C)(C)CC3)nc(NC(=O)CCl)c2c1 (centres unmarked) [Compound 21]
C (C denotes ≤5-fold),≥ 2000,Cc1cc([C@H](C)Nc2ccccc2C(=O)O)c2nc(-c3ccc(F)cc3)n(C)c(=O)c2c1 [Compound 39]
C (C denotes ≤5-fold),≥ 2000,Cc1cc(C(C)Nc2ccccc2C(=O)O)c2nc(N3Cc4ccccc4C3)[nH]c(=O)c2c1 (centres unmarked) [Compound 6]
B (B denotes 20-fold≥value>5-fold),750 to 2000,Cc1cc(C(C)Nc2ccccc2C(=O)O)c2nc(N3Cc4ccccc4C3)ccc2c1 (centres unmarked) [Compound 30]
A (A denotes >20-fold),< 750,Cc1cc([C@@H](C)Nc2ccccc2C(=O)O)c2nc(-c3cccnc3)n(C)c(=O)c2c1 [Compound 137]
A (A denotes >20-fold),< 750,Cc1cc([C@@H](C)Nc2ccccc2C(=O)O)c2cc(-c3ccnc(C4CC4)c3)ncc2c1 [Compound 89]
C (C denotes ≤5-fold),≥ 2000,Cc1cc([C@@H](C)Nc2ccccc2C(=O)O)c2nc(N3Cc4ccccc4C3)ncc2c1 [Compound 35]
C (C denotes ≤5-fold),≥ 2000,Cc1cc(C(C)Nc2ccccc2C(=O)O)c2nc(N3Cc4ccccc4C3)nc(NC3COC3)c2c1 (centres unmarked) [Compound 71]
A (A denotes >20-fold),< 750,Cc1cc([C@@H](C)Nc2ccccc2C(=O)O)c2nc(-c3ccc(C)nc3)n(C)c(=O)c2c1 [Compound 135]
C (C denotes ≤5-fold),≥ 2000,Cc1cc(C(C)Nc2ccccc2C(=O)O)c2nc(N3CCC(C)(C)CC3)nc(C(N)=O)c2c1 (centres unmarked) [Compound 23]
A (A denotes >20-fold),< 750,Cc1cc([C@@H](C)Nc2ccccc2C(=O)O)c2cc(OC3CCOCC3)ncc2c1 [Compound 132]

T47D pAKT S473 HTRF IC50 (H1047R): T47D (H1047R) selectivity over SKBR3 (WT),IC50 [nM],SMILES
B (B denotes 20-fold≥value>5-fold),< 750,Cc1cc([C@@H](C)Nc2ccccc2C(=O)O)c2nc(-c3cnc(C)c(Cl)c3)n(C)c(=O)c2c1 [Compound 140]
A (A denotes >20-fold),< 750,Cc1cc(C(C)Nc2ccccc2C(=O)O)c2nc(-c3ccc(C4CC4)nc3)n(C)c(=O)c2c1 (centres unmarked) [Compound 136]
C (C denotes ≤5-fold),≥ 2000,Cc1cc(C(C)Nc2ccccc2C(=O)O)c2nc(N3CCC(C)(C)CC3)nc(N)c2c1 (centres unmarked) [Compound 3]
A (A denotes >20-fold),< 750,Cc1cc(C(C)Nc2ccccc2C(=O)O)c2cc(-c3ccc4c(c3)c(C)nn4C)n(C)c(=O)c2c1 (centres unmarked) [Compound 87]
B (B denotes 20-fold≥value>5-fold),750 to 2000,Cc1cc([C@H](C)Nc2ccccc2C(=O)O)c2nc(N3Cc4ccccc4C3)ncc2c1 [Compound 36]
B (B denotes 20-fold≥value>5-fold),750 to 2000,Cc1cc(C(C)Nc2ccccc2C(=O)O)c2nc(N3Cc4ccccc4C3)nc(NC3CC3O)c2c1 (centres unmarked) [Compound 65]
B (B denotes 20-fold≥value>5-fold),750 to 2000,Cc1cc([C@H](C)Nc2ccccc2C(=O)O)c2nc(N3CCC(C)(C)CC3)nc(O)c2c1 [Compound 11]
B (B denotes 20-fold≥value>5-fold),< 750,Cc1cc([C@@H](C)Nc2ccccc2C(N)=O)c2nc(-c3cccnc3)n(C)c(=O)c2c1 [Compound 141]
A (A denotes >20-fold),< 750,Cc1cc(C(C)Nc2ccccc2C(=O)O)c2nc(N3CCC(C)(C)CC3)nc(C#N)c2c1 (centres unmarked) [Compound 61]
B (B denotes 20-fold≥value>5-fold),750 to 2000,Cc1cc(C(C)Nc2ccccc2C(=O)O)c2cc(N3Cc4ccccc4C3)ncc2c1 (centres unmarked) [Compound 59]
A (A denotes >20-fold),< 750,Cc1cc(C(C)Nc2ccccc2C(=O)O)c2nc(N3Cc4ccccc4C3)nc(C(N)=O)c2c1 (centres unmarked) [Compound 24]
B (B denotes 20-fold≥value>5-fold),< 750,Cc1cc([C@@H](C)Nc2ccccc2C(=O)O)c2nc(-c3ccnc(C4CC4)c3)n(C)c(=O)c2c1 [Compound 145]
C (C denotes ≤5-fold),≥ 2000,Cc1cc([C@@H](C)Nc2ccccc2C(=O)O)c2nc(N3CCC(C)(C)CC3)nc(O)c2c1 [Compound 12]
A (A denotes >20-fold),< 750,Cc1cc(C(C)Nc2ccccc2C(=O)O)c2nc(-c3ccc4c(c3)c(C)cn4C)n(C)c(=O)c2c1 (centres unmarked) [Compound 133]
A (A denotes >20-fold),< 750,Cc1cc([C@@H](C)Nc2ccccc2C(=O)O)c2cc(-c3ccc4c(c3)c(C)nn4C)n(C)c(=O)c2c1 [Compound 86]
C (C denotes ≤5-fold),≥ 2000,Cc1cc([C@H](C)Nc2ccccc2C(=O)O)c2nc(N3CCC(C)(C)CC3)ncc2c1 [Compound 7]
B (B denotes 20-fold≥value>5-fold),750 to 2000,Cc1cc(C(C)Nc2ccccc2C(N)=O)c2nc(-c3cccnc3)n(C)c(=O)c2c1 (centres unmarked) [Compound 139]
A (A denotes >20-fold),< 750,Cc1cc(C(C)Nc2ccccc2C(=O)O)c2cc(C3CCCOC3)ncc2c1 (centres unmarked) [Compound 131]
A (A denotes >20-fold),< 750,Cc1cc([C@@H](C)Nc2ccccc2C(=O)O)c2nc(-c3ccc4c(c3)c(C)cn4C)n(C)c(=O)c2c1 [Compound 134]
B (B denotes 20-fold≥value>5-fold),750 to 2000,Cc1cc([C@H](C)Nc2ccccc2C(=O)O)c2nc(N3Cc4ccccc4C3)nc(N3CC(O)C3)c2c1 [Compound 144]
C (C denotes ≤5-fold),≥ 2000,Cc1cc([C@@H](C)Nc2ccccc2C(=O)O)c2nc(N3Cc4ccccc4C3)[nH]c(=O)c2c1 [Compound 4]
